Source: ChEMBL document CHEMBL5653615 (J Biol Chem, 2013)

Key:
[1] = biological target: Tyrosine-protein kinase HCK (Homo sapiens) (UniProt P08631); assay: Inhibition of human HCK at 18.6 nM by HotSpot assay relative to control
[2] = biological target: T1, Interleukin-1 receptor-associated kinase 4 (Homo sapiens) (UniProt Q9NWZ3); assay: Inhibition of human IRAK4 at 18.6 nM by HotSpot assay relative to control
T1 sequence (whole entry): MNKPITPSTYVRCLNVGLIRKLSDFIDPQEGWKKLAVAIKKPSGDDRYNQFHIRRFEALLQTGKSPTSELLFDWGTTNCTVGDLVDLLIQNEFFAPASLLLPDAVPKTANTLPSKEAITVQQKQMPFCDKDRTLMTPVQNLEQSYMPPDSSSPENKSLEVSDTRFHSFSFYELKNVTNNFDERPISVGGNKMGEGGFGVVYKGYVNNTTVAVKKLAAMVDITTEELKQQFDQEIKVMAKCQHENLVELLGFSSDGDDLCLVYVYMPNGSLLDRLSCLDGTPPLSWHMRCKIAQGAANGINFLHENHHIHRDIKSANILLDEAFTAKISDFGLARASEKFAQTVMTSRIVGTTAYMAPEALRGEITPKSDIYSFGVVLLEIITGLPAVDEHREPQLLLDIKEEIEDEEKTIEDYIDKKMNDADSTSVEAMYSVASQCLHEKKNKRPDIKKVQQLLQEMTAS

[3] = biological target: T2, Serine/threonine-protein kinase STK11 (Homo sapiens) (UniProt Q15831); assay: Inhibition of human LKB1 at 18.6 nM by HotSpot assay relative to control
T2 sequence (whole entry): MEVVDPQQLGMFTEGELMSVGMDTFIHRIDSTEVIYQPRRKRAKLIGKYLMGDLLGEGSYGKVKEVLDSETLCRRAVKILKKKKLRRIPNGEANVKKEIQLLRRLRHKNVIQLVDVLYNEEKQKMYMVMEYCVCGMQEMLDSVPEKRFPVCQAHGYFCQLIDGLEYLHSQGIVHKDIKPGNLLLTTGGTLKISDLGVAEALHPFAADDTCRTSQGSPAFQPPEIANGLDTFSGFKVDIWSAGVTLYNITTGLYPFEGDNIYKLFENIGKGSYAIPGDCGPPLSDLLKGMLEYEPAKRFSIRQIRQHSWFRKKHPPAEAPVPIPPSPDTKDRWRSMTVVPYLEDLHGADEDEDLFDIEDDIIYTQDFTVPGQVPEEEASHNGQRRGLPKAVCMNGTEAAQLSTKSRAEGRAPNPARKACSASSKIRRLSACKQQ

[4] = biological target: MAP kinase-activated protein kinase 3 (Homo sapiens) (UniProt Q16644); assay: Inhibition of human MAPKAPK3 at 18.6 nM by HotSpot assay relative to control
[5] = biological target: Maternal embryonic leucine zipper kinase (Homo sapiens) (UniProt Q14680); assay: Inhibition of human MELK at 18.6 nM by HotSpot assay relative to control
[6] = biological target: T3, Aurora kinase A (Homo sapiens) (UniProt O14965); assay: Inhibition of human Aurora A at 1.82 nM by HotSpot assay relative to control
T3 sequence (whole entry): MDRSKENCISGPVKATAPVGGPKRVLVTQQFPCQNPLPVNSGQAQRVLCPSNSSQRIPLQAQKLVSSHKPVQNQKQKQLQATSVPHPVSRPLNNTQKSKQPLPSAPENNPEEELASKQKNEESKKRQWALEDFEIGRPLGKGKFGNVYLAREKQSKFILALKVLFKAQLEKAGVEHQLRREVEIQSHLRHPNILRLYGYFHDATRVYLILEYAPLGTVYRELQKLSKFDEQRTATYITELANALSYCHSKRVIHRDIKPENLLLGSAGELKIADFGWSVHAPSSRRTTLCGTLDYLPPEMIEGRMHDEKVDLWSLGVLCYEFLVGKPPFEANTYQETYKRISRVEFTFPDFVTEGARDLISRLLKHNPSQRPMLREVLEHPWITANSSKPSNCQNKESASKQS

[7] = biological target: Tyrosine-protein kinase Fyn (Homo sapiens) (UniProt P06241); assay: Inhibition of human FYN at 1.82 nM by HotSpot assay relative to control
[8] = biological target: T4, Mitogen-activated protein kinase kinase kinase kinase 2 (Homo sapiens) (UniProt Q12851); assay: Inhibition of human GCK at 1.82 nM by HotSpot assay relative to control
T4 sequence (whole entry): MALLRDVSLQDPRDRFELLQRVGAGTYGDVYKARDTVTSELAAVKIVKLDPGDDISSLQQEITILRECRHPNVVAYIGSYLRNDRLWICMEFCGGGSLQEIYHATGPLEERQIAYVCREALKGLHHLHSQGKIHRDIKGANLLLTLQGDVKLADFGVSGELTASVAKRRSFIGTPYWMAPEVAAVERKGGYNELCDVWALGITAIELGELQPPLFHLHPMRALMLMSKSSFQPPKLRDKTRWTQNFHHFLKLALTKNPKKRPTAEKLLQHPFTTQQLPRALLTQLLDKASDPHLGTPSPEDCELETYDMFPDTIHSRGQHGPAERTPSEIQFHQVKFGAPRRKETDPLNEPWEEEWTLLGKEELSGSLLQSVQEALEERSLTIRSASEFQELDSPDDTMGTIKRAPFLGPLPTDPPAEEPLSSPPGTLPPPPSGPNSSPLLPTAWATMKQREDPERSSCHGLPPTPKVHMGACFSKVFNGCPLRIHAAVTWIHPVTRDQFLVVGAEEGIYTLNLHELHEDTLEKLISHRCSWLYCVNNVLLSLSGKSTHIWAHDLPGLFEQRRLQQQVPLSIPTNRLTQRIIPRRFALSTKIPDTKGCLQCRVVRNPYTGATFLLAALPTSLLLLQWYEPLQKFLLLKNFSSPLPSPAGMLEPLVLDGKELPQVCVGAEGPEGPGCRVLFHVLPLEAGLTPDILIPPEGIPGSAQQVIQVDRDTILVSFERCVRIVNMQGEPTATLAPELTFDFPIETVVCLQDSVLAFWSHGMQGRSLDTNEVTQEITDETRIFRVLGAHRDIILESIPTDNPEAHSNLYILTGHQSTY

Sequence of Tyrosine-protein kinase Fyn (Homo sapiens) (P06241 2-537 limits assumed): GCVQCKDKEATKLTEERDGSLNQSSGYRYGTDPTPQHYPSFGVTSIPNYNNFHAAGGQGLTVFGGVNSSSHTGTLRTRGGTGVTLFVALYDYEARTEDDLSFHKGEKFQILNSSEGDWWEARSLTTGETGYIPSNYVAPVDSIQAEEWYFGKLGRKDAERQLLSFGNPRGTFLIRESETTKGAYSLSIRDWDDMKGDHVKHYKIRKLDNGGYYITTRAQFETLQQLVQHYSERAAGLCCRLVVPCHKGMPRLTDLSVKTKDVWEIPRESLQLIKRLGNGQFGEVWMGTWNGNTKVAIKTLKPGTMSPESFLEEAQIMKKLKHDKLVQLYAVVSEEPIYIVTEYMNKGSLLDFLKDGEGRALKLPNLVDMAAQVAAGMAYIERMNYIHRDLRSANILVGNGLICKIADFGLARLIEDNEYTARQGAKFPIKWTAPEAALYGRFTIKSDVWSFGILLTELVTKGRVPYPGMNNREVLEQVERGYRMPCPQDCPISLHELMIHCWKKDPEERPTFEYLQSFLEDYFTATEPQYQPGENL
Sequence of MAP kinase-activated protein kinase 3 (Homo sapiens) (Q16644 whole entry, looked up): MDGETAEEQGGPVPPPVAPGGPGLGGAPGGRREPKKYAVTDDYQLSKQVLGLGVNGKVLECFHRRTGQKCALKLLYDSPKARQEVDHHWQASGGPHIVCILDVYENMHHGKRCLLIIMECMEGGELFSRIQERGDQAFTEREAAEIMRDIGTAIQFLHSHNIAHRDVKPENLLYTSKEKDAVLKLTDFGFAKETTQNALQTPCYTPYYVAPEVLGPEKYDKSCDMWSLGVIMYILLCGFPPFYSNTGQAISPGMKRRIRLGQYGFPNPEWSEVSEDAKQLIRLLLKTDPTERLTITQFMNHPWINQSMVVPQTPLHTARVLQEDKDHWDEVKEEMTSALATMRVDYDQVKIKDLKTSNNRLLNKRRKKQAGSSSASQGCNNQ
Sequence of Maternal embryonic leucine zipper kinase (Homo sapiens) (Q14680 whole entry, looked up): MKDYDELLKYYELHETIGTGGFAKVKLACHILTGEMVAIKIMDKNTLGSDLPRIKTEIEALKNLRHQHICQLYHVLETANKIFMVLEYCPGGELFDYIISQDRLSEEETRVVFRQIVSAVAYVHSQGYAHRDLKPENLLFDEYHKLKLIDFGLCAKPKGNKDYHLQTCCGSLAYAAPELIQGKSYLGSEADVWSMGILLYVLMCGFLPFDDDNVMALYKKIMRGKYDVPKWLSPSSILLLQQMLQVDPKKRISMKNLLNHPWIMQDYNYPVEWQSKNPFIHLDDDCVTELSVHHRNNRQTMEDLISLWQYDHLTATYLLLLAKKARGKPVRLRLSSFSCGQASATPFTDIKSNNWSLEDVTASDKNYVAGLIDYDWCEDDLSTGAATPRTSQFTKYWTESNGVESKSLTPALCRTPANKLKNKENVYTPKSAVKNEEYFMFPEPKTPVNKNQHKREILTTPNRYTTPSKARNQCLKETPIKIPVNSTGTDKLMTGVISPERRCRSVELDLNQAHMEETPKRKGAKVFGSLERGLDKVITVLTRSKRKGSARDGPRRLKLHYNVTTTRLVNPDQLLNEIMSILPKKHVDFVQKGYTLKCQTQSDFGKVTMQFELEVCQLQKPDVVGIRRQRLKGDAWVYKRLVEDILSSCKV
Sequence of Tyrosine-protein kinase HCK (Homo sapiens) (P08631 2-526 limits assumed): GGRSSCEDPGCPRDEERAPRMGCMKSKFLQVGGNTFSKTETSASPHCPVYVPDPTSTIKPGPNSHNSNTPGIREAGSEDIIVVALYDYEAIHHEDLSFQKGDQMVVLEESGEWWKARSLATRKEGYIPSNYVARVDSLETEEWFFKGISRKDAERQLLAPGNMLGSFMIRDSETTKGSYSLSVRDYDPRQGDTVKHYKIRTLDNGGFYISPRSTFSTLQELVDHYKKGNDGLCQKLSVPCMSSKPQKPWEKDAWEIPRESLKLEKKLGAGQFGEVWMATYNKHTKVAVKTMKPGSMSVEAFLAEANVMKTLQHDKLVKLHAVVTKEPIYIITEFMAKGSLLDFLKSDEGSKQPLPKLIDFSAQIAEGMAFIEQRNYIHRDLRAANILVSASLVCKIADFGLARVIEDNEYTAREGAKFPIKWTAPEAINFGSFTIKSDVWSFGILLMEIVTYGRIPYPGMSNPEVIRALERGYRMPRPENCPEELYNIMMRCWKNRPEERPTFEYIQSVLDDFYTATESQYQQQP

| SMILES | inhibition [1] [%] | inhibition [2] [%] | inhibition [3] [%] | inhibition [4] [%] | inhibition [5] [%] | inhibition [6] [%] | inhibition [7] [%] | inhibition [8] [%] |
| --- | --- | --- | --- | --- | --- | --- | --- | --- |
| C[C@]1(O)C[C@@H](c2nc(-c3ccc4ccc(-c5ccccc5)nc4c3)c3c(N)nccn32)C1 | 10.3 | -2.53 | 2.28 | 0.25 | -2.08 |  |  |  |
| C[C@@]1(C(=O)Nc2ccc(F)nc2)CCCN1c1nc(Nc2cc(C3CC3)n[nH]2)c2cccn2n1 |  |  |  |  |  | 30 | -6.23 | -0.04 |
